# Data published in patent US20230174571A1, “METHOD OF TREATING SHIP1-MEDIATED DISEASES USING PELOROL DERIVATIVES” (Zebrapeutics Inc., priority 2020, published 2023).
# Columns and labels:
# [1] = test system: ConA-induced liver injury; assay: ConA-induced liver injury model; type: in vivo, mouse
# Source text: Concanavalin A (ConA) induced liver injury model is an immune-mediated liver injury model, resembling viral and autoimmune hepatitis in humans. Intravenous delivery of ConA in mice is known to activate T cells, resulting in increased inflammatory cytokines such as TNF-α, IFN-r and IL-6 as well as decreased anti-inflammatory cytokine IL-10. The T cell infiltration into the liver leads to consequences of hepatocyte apoptosis and necrosis, resulting in increased levels of liver enzymes ALT and AST in plasma. (Zhou 2015) Methods: Five groups (n=5 each) of C57 mice were treated with a blank control, compound I-1 alone (10 mg/kg/d), ConA (15 mg/kg), ConA+compound I-1 (3 mg/kg/d) or ConA+compound I-1 (10 mg/kg/d). In each instance, compound I-1 was given 5 days before ConA injection (if applicable) via oral gavage twice a day. One hour after the last drug administration, ConA (15 mg/kg) was delivered intravenously. 12 hours after the ConA injection, orbital blood was taken from the eye and the enzyme biochemistry (plasma) and blood cell type tests were performed by analyzers.
# colitis in IL10−/− mice = assay: Mouse colitis model (IL10 knock-out); type: in vivo; settings: colitic IL10−/− mice
# Procedure: Mouse Colitis Model. Colitis was induced in 6-8 week old BALB/cIL10−/−mice by administering the colonic contents of conventional C57BL/6 mice diluted 1:10 in PBS by oral gavage. Mouse weights and fecal consistencies were monitored and colitis allowed to develop for 6 weeks. Ethanol (Vehicle) and compound I-1 (3 mg/kg) was diluted in cage drinking water and dexamethasone (0.4 mg/kg) was administered every 2 days by oral gavage for 3 weeks. At the end of the dosing period, proximal, medial and distal colon sections were collected for paraffin embedding or stored in RNALater (Invitrogen, Mississauga, ON) for RNA extraction. Slides were prepared, stained with hematoxylin and eosin, and mounted by the UBC Department of Pathology and Laboratory Medicine Histochemistry Facility. Specimens were assigned pathological scores by two, independent, blinded investigators according to a method described by Madsen et al (Madsen et al., 2001). In brief, colonic inflammation was graded using a 4-point scale, scoring 0-3 for each of submucosal edema, immune cell infiltration, goblet cell ablation, and integrity of the epithelial layer. For analysis of mRNA expression, colon sections were homogenized and total RNA extracted as described above and analyzed by real time PCR using gene specific primers for IL17, CCL2, and GAPDH (normalization control).
# To show in vivo anti-inflammatory effect of the compounds of the present disclosure, exemplary compound I-1 was administered to IL-10 knock-out mouse model of colitis (Keubler 2015). IL10 knock-out mice develop colitis when colonized with normal gut flora because IL10 is needed to temper the host immune response to intestinal commensal bacteria (Keubler 2015, Kuhn 1993). Colitis was initiated in IL10−/−mice by inoculating them with the freshly isolated colon contents of normal, specific pathogen free mice and allowed inflammation to develop for 6 weeks (Sydora 2003). Mice were then treated for 3 weeks with vehicle, 2 mg/kg compound I-1, or 0.4 mg/kg dexamethasone (anti-inflammatory steroidal drug used as positive control) prior to colon tissue collection for analyses. Hematoxylin and eosin stained sections were prepared from the proximal, mid and distal colons of mice, as well as from mice not inoculated with flora (no colitis group) (FIG. 8A).
# PAC1 = target: T1, PAC1 (Mus musculus, UniProt Q9ES52); assay: Small angle X-ray scattering of PAC1; settings: 190 μM PAC1 with 570 μM compound
# T1 construct: PAC1 and PAC2 consists of phosphatase and C2 domain (residues aa 402-861 and aa 402-857 respectively); HMT-tag (His6-MBP-TEV site) (N); made in house; host or cells: E. coli
# T1 sequence (Q9ES52 402-861): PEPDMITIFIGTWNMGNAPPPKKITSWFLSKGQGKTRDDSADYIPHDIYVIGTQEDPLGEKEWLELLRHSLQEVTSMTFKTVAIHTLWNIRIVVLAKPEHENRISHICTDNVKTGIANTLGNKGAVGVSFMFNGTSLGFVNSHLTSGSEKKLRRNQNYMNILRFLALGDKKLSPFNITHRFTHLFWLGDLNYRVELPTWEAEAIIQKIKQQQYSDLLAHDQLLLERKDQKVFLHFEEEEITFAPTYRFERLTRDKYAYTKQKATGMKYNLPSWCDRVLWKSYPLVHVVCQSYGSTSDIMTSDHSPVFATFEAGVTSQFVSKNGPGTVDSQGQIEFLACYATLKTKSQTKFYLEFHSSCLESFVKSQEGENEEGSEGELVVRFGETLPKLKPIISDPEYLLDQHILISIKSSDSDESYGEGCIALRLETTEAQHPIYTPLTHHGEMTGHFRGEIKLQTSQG
# Procedure: Small angle X-ray scattering. PAC1 samples in 190 μM in 50 mM TrisHCl (pH7.4) 150 mM NaCl, 1 mM TCEP and 2% EtOH with and without 570 μM compound I-1 ([…]). Dynamic Light Scattering (DLS) data for PAC1 and PAC1-compound I-1 complexes were collected prior to SAXS data collection to confirm that all the samples are highly pure and suitable for data collection. The data collection was performed on a 3-pinhole camera (S-MAX3000; Rigaku Americas, The Woodlands, Tex.) equipped with a Rigaku MicroMaxp002 microfocus sealed tube (Cu Kα radiation at 1.54 Å) and a Confocal Max-Flux (CMF) optics system operating at 40 W (Rigaku). Scattering data were recorded using a 200 mm multiwire two-dimensional detector. The data for both samples and buffer were collected for 3 h for each sample within the range of 0.008≤s≤0.26 Å-1 and processed according to the method previously described, where s=4π sin θ/λ (Patel et al., 2011, Patel et al., 2010, Patel et al., 2012). The Normalized Spatial Discrepancy (NSD) of the non-liganded and liganded PAC1 models were 0.6 and 1.0 respectively.
# [2] = C57 mice, ConA 15 mg/kg i.v., compound 3 or 10 mg/kg/d oral gavage, 12 hours after ConA
# [3] = repeat experiment, 10 mg/kg/d, dexamethasone 0.5 mg/kg/d as positive control
# [4] = 3 weeks treatment, RT-qPCR relative to GAPDH
smiles,measurement,setting,value
Cc1cc(O)cc2c1C1(C)CCC3C(C)(C)CCCC3(C)C1C2 (centres unmarked) [Compound I-1],BUN,[1]; [2],significantly reduced
same,TBIL,[1]; [2],significantly reduced
same,plasma ALT,[1]; [2],significantly reduced
same,plasma AST,[1]; [2],significantly reduced
same,ConA-induced ALT level,[1]; [3],significantly lowered
same,ConA-induced AST level,[1]; [3],significantly lowered
same,"reduction of histological and molecular markers of colon inflammation, compared with dexamethasone",colitis in IL10−/− mice,as effective as dexamethasone
same,pathology scores of colon sections,"colitis in IL10−/− mice; 3 weeks treatment, 2 mg/kg compound I-1 or 0.4 mg/kg dexamethasone, vs vehicle",significantly lower pathology scores
same,CCL2 mRNA in colon,colitis in IL10−/− mice; [4],significantly reduced
same,IL17 mRNA in colon,colitis in IL10−/− mice; [4],significantly reduced
same,overall conformation of PAC1 on binding (SAXS),PAC1,results in a change in its overall conformation
